Data taken from patent US20160266093A1, “CELLS HAVING DISRUPTED EXPRESSION OF PROTEINS INVOLVED IN ADME AND TOXICOLOGY PROCESSES” (SIGMA-ALDRICH CO. LLC, priority 2010, published 2016).

Columns and labels:
[1] = test system: parental C2BBe1 cells (wild type); conditions: Caco-2
Method: (§1) Both wild type cells (parental C2BBe1 cells) and BCRP knockout cells were seeded onto 24-well transwell plates and cultured for 21 days, following a standard protocol for intestinal efflux transporter assays previously developed using Caco-2 cells. The permeability of test compounds in both the apical to basal (A to B) and basal to apical (B to A) directions was measured following a two hour incubation and the efflux values calculated. […] Digoxin is a known MDR1 substrate, while CDCFDA is selective for the MRP2 transporter. Two additional compounds were used as controls, atenolol and metoprolol, which are known to not be substrates for either of these transporters.
(§2) The BCRP and MDR1 transporter genes were individually knocked out and an MDR1/BCRP double knockout was also generated in C2BBe1 cells using zinc finger nuclease technology. Cells were analyzed and expanded as described above and then tested for functional activity in the standard transwell assay. Two substrates were utilized—estrone 3-sulfate as a selective substrate for BCRP and digoxin as a selective substrate for MDR1. Metoprolol was used as a control.

[2] = test system: MDR1 knockout C2BBe1 cells
Method: as §1, §2

[3] = test system: MDR1/BCRP double knockout C2BBe1 cells
Method: as §1, §2

[4] = test system: BCRP knockout C2BBe1 cells
Method: The wild-type BCRP gene was knocked out in C2BBe1 cells using zinc finger nuclease technology to generate a stable cell line. Cells were sorted and single cell cloned. Cells were analyzed for the desired mutations and positive clones were chosen for further expansion and analysis. Quantitative PCR was used to evaluate mRNA expression of the cell and compared to wild type cell. Whole cell lysates prepared from these clones were subjected to immunoblotting for analysis of BCRP protein expression level. […] A single BCRP knockout cell clone was selected for functional characterization of efflux activity using several known transporter-selective substrates (e.g. estrone 3-sulfate, digoxin and CDCFDA).
as §1, §2

efflux ratio [1] | efflux ratio [2] | efflux ratio [3] | efflux ratio [4] | efflux ratio in the knockout cells compared to the parental cells [4] | Structure (SMILES)
high | inhibited | inhibited | high | unaffected | C[C@H]1O[C@@H](O[C@H]2[C@@H](O)C[C@H](O[C@H]3[C@@H](O)C[C@H](O[C@H]4CC[C@@]5(C)[C@H](CC[C@@H]6[C@@H]5C[C@@H](O)[C@]5(C)[C@@H](C7=CC(=O)OC7)CC[C@]65O)C4)O[C@@H]3C)O[C@@H]2C)C[C@H](O)[C@@H]1O [digoxin]
high | high | inhibited | inhibited | greatly reduced | C[C@]12CC[C@@H]3c4ccc(OS(=O)(=O)O)cc4CC[C@H]3[C@@H]1CCC2=O [estrone 3-sulfate]
